Test results reported in patent US20160361311A1, “LIGANDS THAT TARGET HEPATITIS C VIRUS E2 PROTEIN” (AMERICAN UNIVERSITY OF CAIRO, priority 2014, published 2016).

Tests used:
E2 = E2 (Hepatitis C virus genotype 1a, UniProt P27958); assay: Binding of CD81 ligand 73735 to E2 (method not given); set-up: species or system HCV
RD114pp = RD114pp infection of Huh-7 cells (luciferase); type: cell-based, feline endogenous virus RD114; conditions: Feline endogenous virus RD114, Huh-7, 30 h, read-out: IC50 RD114pp
Procedure: (§1) Pseudotyped retroviral particles harboring HCV envelope proteins (HCVpp) from different genotypes were produced as described previously. A plasmid encoding the feline endogenous virus RD114 glycoprotein [35] was used for the production of RD114pp. Both HCVpp and RD114pp expressed Firefly luciferase.
(§2) To identify ligands that inhibit HCV infection, Huh-7 cells were seeded in 96-well plates and treated the day after with six different concentrations of each ligand diluted in DMSO in duplicate using a Zephyr automated liquid handling workstation (Caliper BioSciences, Hopkinton, Mass.). The final concentration of DMSO (1%) was adjusted to be the same for all ligand concentrations. Cells treated with DMSO were used as negative controls. Cells treated with different concentrations of anti-CD81 (JS-81 from BD Pharmingen, San Jose, Calif.) 1 hour before infection, were also used as positive controls. The third day, RD114pp, HCVpp or HCVcc were inoculated and incubated for 30 hours at 37° C. Firefly and Gaussia luciferase assays were performed as indicated by the manufacturer (Promega, San Luis Obispo, Calif.).
Pseudotyped retroviral particles harboring the envelope protein of an endogenous feline retrovirus (RD114pp) were first used to determine the specificity and the safety of molecules.

recombinant E2 protein = target: T1, recombinant E2 protein (Hepatitis C virus genotype 1b, UniProt Q9WMX2); assay: Surface plasmon resonance (Biacore T100) binding to recombinant E2 immobilized on CM5 chip; conditions: for Binding (RU): 200 μM ligand in PBS, 3 min association; for Dissociation 1 (RU): response remaining 10 sec after rinsing with buffer; for Dissociation 2 (RU): response remaining 50 sec after rinsing with buffer
T1 construct: encoding amino acids 384-656 of the Con1 envelope protein 2 ectodomain (eE2); made in house; host or cells: HEK293T cells (lentiviral, secreted)
From the text: A construct containing the sequence encoding amino acids 384-656 of the Con1 envelope protein 2 ectodomain (eE2), a genoptype 1 E2 sequence, was cloned into a lentiviral expression vector with a carboxy-terminal Protein A tag separated by a PreScission Protease cleavage consensus sequence. eE2-ProtA was stably expressed in HEK293T cells using lentiviral infection. The protein was secreted into the media and supernatants were purified using IgG Sepharose (GE Healthcare, Piscataway, N.J.). eE2-ProtA was eluted with 100 mM sodium citrate and 20 mM KCl at pH 3 directly into tubes containing 1M Tris pH 9 for immediate neutralization. PreScission Protease was added to the eluted sample at a ratio of 1:50 (enzyme:eE2), and the digest was then dialyzed into 20 mM HEPES pH 7.5, 250 mM NaCl, 5% glycerol. eE2 was separated from the cleaved tag and the PreScission Protease by ion exchange chromatography.
The set of 34 of the ligands predicted by AutoDock to bind to E2 were tested experimentally to determine if they bind to recombinant E2 protein immobilized on a chip using surface Plasmon resonance. The SPR analyses were performed using a Biacore T100 workstation (GE Healthcare, NJ, USA) and Prot-A-tagged HCV E2 protein. 1 μM ProtA-HCV E2 was diluted into 10 mM sodium acetate buffer pH 5 and immobilized for 15 min at a flow speed of 5 μl/min onto a CM5 sensor chip using amine coupling (EDC-NHS). Approximately 10,000 response units (RU) of protein were immobilized on the chip. His-CD81-LEL (Bioclone-CA/USA) binding to HCV E2 was tested prior to injecting the ligands to confirm the E2 protein was functional and would bind CD81-LEL. In a typical experiment with CD81, […] of his-CD81 in 114 μl PBS was injected into channel 2 and 106.4 RUs of CD81 bound to the E2 on the chip. This was followed by testing the binding of the 34 virtual screening hits where the ligands were prepared as 200 μM solutions in PBS and they were introduced to the protein using a pre-programmed 3 min association and 1 min dissociation interval. The response was measured at two time points during dissociation, 10 and 50 seconds, to obtain information on the rate of ligand dissociation from E2. Twenty-three of the ligands predicted by AutoDock to bind to E2 were observed by SPR to bind to the recombinant protein (Table 2). The measured responses for the ligands that bound varied from 54 to 276 RUs. Data was also obtained on the rate of ligand dissociation by measuring the amount of ligand remaining bound at two time points, dissociation 1 (10 seconds) and dissociation 2 (50 seconds), during the rinsing of the chip with buffer (FIG. 8). The majority of the ligands dissociated quickly, as one might expect for small molecules that bind to the surface of a protein.

HCVcc = HCVcc infection of Huh-7 cells (Gaussia luciferase); type: cell-based, HCV; conditions: Hepatitis C virus, Huh-7, 30 h, read-out: IC50 HCVcc
Procedure: The cell culture-produced HCV particles (HCVcc) used in this study were based on the JFH1 strain [36] and were prepared as described previously. They were engineered to express the A4 epitope, titer-enhancing mutations and Gaussia luciferase.
as §2
(§3) The remaining ligands were next tested against pseudotyped retroviral particles harboring genotype-2a HCV envelope proteins (HCVpp 2a), cell culture produced HCV particles (HCVcc) or RD114pp. As a positive control, an anti-CD81 antibody was used in parallel.

HCVpp 2a = HCVpp 2a infection of Huh-7 cells, 96-well (luciferase); type: cell-based, HCV; conditions: Hepatitis C virus, Huh-7, 30 h, read-out: IC50 HCVpp
Procedure: as §1, §2, §3

T1 sequence (Q9WMX2 384-656): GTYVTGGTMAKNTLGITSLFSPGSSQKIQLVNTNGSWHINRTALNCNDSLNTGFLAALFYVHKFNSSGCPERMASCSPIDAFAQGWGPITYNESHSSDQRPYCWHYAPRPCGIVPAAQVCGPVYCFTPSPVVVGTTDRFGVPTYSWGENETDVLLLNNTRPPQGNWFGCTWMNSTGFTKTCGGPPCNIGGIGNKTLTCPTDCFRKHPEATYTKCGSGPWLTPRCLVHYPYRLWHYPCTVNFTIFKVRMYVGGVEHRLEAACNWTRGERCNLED
E2, sequence (P27958 384-746): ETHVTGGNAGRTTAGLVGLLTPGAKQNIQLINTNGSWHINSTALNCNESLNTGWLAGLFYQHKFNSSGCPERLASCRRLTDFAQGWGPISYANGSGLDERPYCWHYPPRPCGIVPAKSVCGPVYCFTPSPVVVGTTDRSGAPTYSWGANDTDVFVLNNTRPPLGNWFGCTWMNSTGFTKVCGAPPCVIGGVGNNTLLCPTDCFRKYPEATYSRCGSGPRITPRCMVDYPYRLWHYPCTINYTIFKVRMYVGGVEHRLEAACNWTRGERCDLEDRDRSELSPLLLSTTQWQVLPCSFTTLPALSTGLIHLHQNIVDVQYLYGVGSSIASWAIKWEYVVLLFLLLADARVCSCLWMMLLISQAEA

Row | SMILES | binding to E2 (in words) (E2) | IC50 (RD114pp) [µM] | Binding (RU) (recombinant E2 protein) | Dissociation 1 (RU) (recombinant E2 protein) | Dissociation 2 (RU) (recombinant E2 protein) | IC50 (HCVcc) [µM] | IC50 (HCVpp 2a) [µM]
1 | COc1cc(-c2ccc(Nc3ccccc3C(=O)O)c(OC)c2)ccc1Nc1ccccc1C(=O)O [Ligand 73735] | determined to bind to E2 | – | – | – | – | – | –
2 | NC1=Nc2ccccc2C(=O)[N+]1=C(N)N [Ligand 403379, 2-amino-3-(diaminomethylidene) quinazolin-3-ium-4-one] | – | > 10 | 58 | 2.8 | 1.1 | > 10 | > 10
3 | c1ccc(-c2ccc3c(c2)N[C@H]([C@H]2Nc4cc(-c5ccccc5)ccc4O2)O3)cc1 [Ligand 84100, (2S)-5-phenyl-2-[(2S)-5-phenyl-2,3-dihydro-1,3-benzoxazol-2-yl]-2,3-dihydro-1,3-benzoxazole] | – | > 10 | 71.2 | 4.2 | 2.2 | > 10 | > 10
4 | Cc1cc(-c2ccc(N3C(=O)CC4(CCCC4)C3=O)c(C)c2)ccc1N1C(=O)CC2(CCCC2)C1=O [Ligand 308835, 2-[4-[4-(1,3-dioxo-2-azaspiro[4.4]nonan-2-yl)-3-methylphenyl]-2-methylphenyl]-2-azaspiro[4.4]nonane-1,3-dione] | – | > 10 | 64.8 | 7.1 | 5.2 | > 10 | > 10
